From US10562887B2, “Triazolones and tetrazolones as inhibitors of ROCK” (BRISTOL-MYERS SQUIBB COMPANY, priority 2016, dated 2020)

target: ROCK2 (Homo sapiens (Human), UniProt O75116); assay: ROCK2 assay (peptide phosphorylation, LABCHIP 3000 Reader); format: biochemical; details: 5 μM ATP, 1.5 μM peptide substrate
Protocol: The effectiveness of compounds of the present invention as ROCK inhibitors can be determined in a 30 μL, assay containing 20 mM HEPES, pH 7.5, 20 mM MgCl2, 0.015% Brij-35, 4 mM DTT, 5 μM ATP and 1.5 μM peptide substrate (FITC-AHA-AKRRRLSSLRA-OH). Compounds were dissolved in DMSO so that the final concentration of DMSO was <2%, and the reaction was initiated with Rho kinase variants. After incubation, the reaction was terminated by the addition of EDTA and the phosphorylated and non-phosphorylated peptides separated using a LABCHIP® 3000 Reader (Caliper Life Sciences). […] Compounds were tested in dose-response format, and the inhibition of kinase activity was calculated at each concentration of compound. The inhibition data were fit using a curve-fitting program to determine the IC50; i.e., the concentration of compound required to inhibit 50% of kinase activity.
Representative Examples were tested in the ROCK2 assay described above and found having ROCK2 inhibitory activity.

Sequence of ROCK2 (O75116 whole entry, species assumed): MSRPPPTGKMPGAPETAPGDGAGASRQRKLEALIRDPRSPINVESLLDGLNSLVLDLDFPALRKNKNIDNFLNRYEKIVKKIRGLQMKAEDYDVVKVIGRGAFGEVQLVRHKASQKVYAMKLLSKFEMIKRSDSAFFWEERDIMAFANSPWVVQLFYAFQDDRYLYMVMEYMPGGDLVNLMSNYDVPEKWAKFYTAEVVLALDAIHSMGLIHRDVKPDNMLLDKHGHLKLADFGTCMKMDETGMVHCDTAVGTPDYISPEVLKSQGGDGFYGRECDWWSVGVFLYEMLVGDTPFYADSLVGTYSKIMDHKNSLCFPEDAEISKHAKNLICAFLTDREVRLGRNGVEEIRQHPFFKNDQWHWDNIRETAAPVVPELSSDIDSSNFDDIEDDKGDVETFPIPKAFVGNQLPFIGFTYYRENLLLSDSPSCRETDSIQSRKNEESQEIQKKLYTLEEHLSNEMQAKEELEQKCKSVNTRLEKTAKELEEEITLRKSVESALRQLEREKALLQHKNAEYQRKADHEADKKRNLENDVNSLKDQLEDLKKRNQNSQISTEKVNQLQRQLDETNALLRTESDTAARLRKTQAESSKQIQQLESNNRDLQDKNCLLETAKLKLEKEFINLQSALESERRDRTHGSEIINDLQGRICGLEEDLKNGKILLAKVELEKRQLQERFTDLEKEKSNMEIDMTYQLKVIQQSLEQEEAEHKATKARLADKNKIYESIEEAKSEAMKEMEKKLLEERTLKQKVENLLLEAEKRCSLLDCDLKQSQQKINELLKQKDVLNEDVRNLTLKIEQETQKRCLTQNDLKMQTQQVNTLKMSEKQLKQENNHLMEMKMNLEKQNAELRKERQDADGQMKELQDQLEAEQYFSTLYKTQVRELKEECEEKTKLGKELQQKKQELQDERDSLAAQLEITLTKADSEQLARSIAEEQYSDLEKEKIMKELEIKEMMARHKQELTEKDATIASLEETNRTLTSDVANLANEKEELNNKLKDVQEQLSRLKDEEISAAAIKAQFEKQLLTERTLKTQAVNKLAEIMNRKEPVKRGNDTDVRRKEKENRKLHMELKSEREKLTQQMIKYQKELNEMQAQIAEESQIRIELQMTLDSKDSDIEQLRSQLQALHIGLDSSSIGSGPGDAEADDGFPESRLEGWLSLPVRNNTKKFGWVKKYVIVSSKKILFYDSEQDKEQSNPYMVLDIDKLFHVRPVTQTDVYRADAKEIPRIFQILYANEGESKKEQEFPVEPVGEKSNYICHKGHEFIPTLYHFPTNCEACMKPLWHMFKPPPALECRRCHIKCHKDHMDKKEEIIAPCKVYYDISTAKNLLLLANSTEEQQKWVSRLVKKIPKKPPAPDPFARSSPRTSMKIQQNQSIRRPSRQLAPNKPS

IC50 [nM]	SMILES
< 5	COc1cc(-n2ncn(Cc3ccccc3)c2=O)ccc1-c1cn[nH]c1 [Example 23, 4-benzyl-1-(3-methoxy-4-(1H-pyrazol-4-yl)phenyl)-1H-1,2,4-triazol-5(4H)-one]
< 5	COc1cccc(Cn2cnn(-c3ccc(-c4cn[nH]c4)c(OC)c3)c2=O)c1 [Example 24, 1-(3-methoxy-4-(1H-pyrazol-4-yl)phenyl)-4-(3-methoxybenzyl)-1H-1,2,4-triazol-5(4H)-one]
5 to 50	COc1cc(-n2ncn(Cc3cc(F)ccc3F)c2=O)ccc1-c1cn[nH]c1 [Example 25, 4-(2,5-difluorobenzyl)-1-(3-methoxy-4-(1H-pyrazol-4-yl)phenyl)-1H-1,2,4-triazol-5(4H)-one]
< 5	COc1cc(F)cc(Cn2cnn(-c3ccc(-c4cn[nH]c4)c(OC)c3)c2=O)c1 [Example 26, 4-(3-fluoro-5-methoxybenzyl)-1-(3-methoxy-4-(1H-pyrazol-4-yl)phenyl)-1H-1,2,4-triazol-5(4H)-one]
< 5	COc1cc(-n2ncn(C(C)c3ccccc3)c2=O)ccc1-c1cn[nH]c1 (centres unmarked) [Example 27, 1-(3-methoxy-4-(1H-pyrazol-4-yl)phenyl)-4-(1-phenylethyl)-1H-1,2,4-triazol-5(4H)-one]
5 to 50	O=c1n(Cc2ccccc2F)cnn1-c1ccc(-c2cn[nH]c2)cc1 [Example 28, 1-(4-(1H-pyrazol-4-yl)phenyl)-4-(2-fluorobenzyl)-1H-1,2,4-triazol-5(4H)-one]
5 to 50	O=c1n(Cc2ccccc2Cl)cnn1-c1ccc(-c2cn[nH]c2)cc1 [Example 29, 1-(4-(1H-pyrazol-4-yl)phenyl)-4-(2-chlorobenzyl)-1H-1,2,4-triazol-5(4H)-one]
< 5	COc1cc(-n2ncn(Cc3cccc(F)c3)c2=O)ccc1-c1cn[nH]c1 [Example 30, 4-(3-fluorobenzyl)-1-(3-methoxy-4-(1H-pyrazol-4-yl)phenyl)-1H-1,2,4-triazol-5(4H)-one]
5 to 50	COc1cc(-n2ncn(Cc3ccccc3F)c2=O)ccc1-c1cn[nH]c1 [Example 31, 4-(2-fluorobenzyl)-1-(3-methoxy-4-(1H-pyrazol-4-yl)phenyl)-1H-1,2,4-triazol-5(4H)-one]
5 to 50	COc1cc(-n2ncn(Cc3ccccc3Cl)c2=O)ccc1-c1cn[nH]c1 [Example 32, 4-(2-chlorobenzyl)-1-(3-methoxy-4-(1H-pyrazol-4-yl)phenyl)-1H-1,2,4-triazol-5(4H)-one]
5 to 50	O=c1n(Cc2c(F)cccc2F)cnn1-c1ccc(-c2cn[nH]c2)cc1 [Example 33, 1-(4-(1H-pyrazol-4-yl)phenyl)-4-(2,6-difluorobenzyl)-1H-1,2,4-triazol-5(4H)-one]
50 to 250	N#Cc1cccc(Cn2cnn(-c3ccc(-c4cn[nH]c4)cc3)c2=O)c1 [Example 34, 3-((1-(4-(1H-pyrazol-4-yl)phenyl)-5-oxo-1H-1,2,4-triazol-4(5H)-yl)methyl)benzonitrile]
50 to 250	COc1cc(-n2ncn(Cc3cccc(C#N)c3)c2=O)ccc1-c1cn[nH]c1 [Example 35, 3-((1-(3-methoxy-4-(1H-pyrazol-4-yl)phenyl)-5-oxo-1H-1,2,4-triazol-4(5H)-yl)methyl)benzonitrile]
5 to 50	COc1cc(-n2ncn(Cc3cc(F)cc(F)c3)c2=O)ccc1-c1cn[nH]c1 [Example 36, 4-(3,5-difluorobenzyl)-1-(3-methoxy-4-(1H-pyrazol-4-yl)phenyl)-1H-1,2,4-triazol-5(4H)-one]
5 to 50	COc1cc(-n2ncn(Cc3cccc(OC(F)F)c3)c2=O)ccc1-c1cn[nH]c1 [Example 37, 4-(3-(difluoromethoxy)benzyl)-1-(3-methoxy-4-(1H-pyrazol-4-yl)phenyl)-1H-1,2,4-triazol-5(4H)-one]
50 to 250	COc1cc(-n2ncn(Cc3ccc(F)cc3)c2=O)ccc1-c1cn[nH]c1 [Example 38, 4-(4-fluorobenzyl)-1-(3-methoxy-4-(1H-pyrazol-4-yl)phenyl)-1H-1,2,4-triazol-5(4H)-one]
5 to 50	COc1cc(-n2ncn(Cc3c(F)cccc3F)c2=O)ccc1-c1cn[nH]c1 [Example 39, 4-(2,6-difluorobenzyl)-1-(3-methoxy-4-(1H-pyrazol-4-yl)phenyl)-1H-1,2,4-triazol-5(4H)-one]
5 to 50	CCc1cc(-n2ncn(Cc3cc(F)cc(OC)c3)c2=O)ccc1-c1cn[nH]c1 [Example 40, 1-(3-ethyl-4-(1H-pyrazol-4-yl)phenyl)-4-(3-fluoro-5-methoxybenzyl)-1H-1,2,4-triazol-5(4H)-one]
250 to 2000	CCc1cc(-n2ncn(Cc3cccc(C#N)c3)c2=O)ccc1-c1cn[nH]c1 [Example 41, 3-((1-(3-ethyl-4-(1H-pyrazol-4-yl)phenyl)-5-oxo-1H-1,2,4-triazol-4(5H)-yl)methyl)benzonitrile]

IC50 [nM]	SMILES
250 to 2000	CCc1cc(-n2ncn(Cc3ccccc3F)c2=O)ccc1-c1cn[nH]c1 [Example 42, 1-(3-ethyl-4-(1H-pyrazol-4-yl)phenyl)-4-(2-fluorobenzyl)-1H-1,2,4-triazol-5(4H)-one]
250 to 2000	CCc1cc(-n2ncn(Cc3ccc(F)cc3)c2=O)ccc1-c1cn[nH]c1 [Example 43, 1-(3-ethyl-4-(1H-pyrazol-4-yl)phenyl)-4-(4-fluorobenzyl)-1H-1,2,4-triazol-5(4H)-one]
5 to 50	CCc1cc(-n2ncn(Cc3cc(F)cc(F)c3)c2=O)ccc1-c1cn[nH]c1 [Example 44, 4-(3,5-difluorobenzyl)-1-(3-ethyl-4-(1H-pyrazol-4-yl)phenyl)-1H-1,2,4-triazol-5(4H)-one]
5 to 50	CCc1cc(-n2ncn(Cc3cccc(OC)c3)c2=O)ccc1-c1cn[nH]c1 [Example 45, 1-(3-ethyl-4-(1H-pyrazol-4-yl)phenyl)-4-(3-methoxybenzyl)-1H-1,2,4-triazol-5(4H)-one]
50 to 250	CCc1cc(-n2ncn(Cc3cccc(OC(F)F)c3)c2=O)ccc1-c1cn[nH]c1 [Example 46, 4-(3-(difluoromethoxy)benzyl)-1-(3-ethyl-4-(1H-pyrazol-4-yl)phenyl)-1H-1,2,4-triazol-5(4H)-one]
250 to 2000	COc1cc(Cn2cnn(-c3ccc(-c4cn[nH]c4)cc3)c2=O)cc(OC)c1 [Example 49, 1-(4-(1H-pyrazol-4-yl)phenyl)-4-(3,5-dimethoxybenzyl)-1H-1,2,4-triazol-5(4H)-one]
< 5	COc1cc(Cn2cnn(-c3ccc(-c4cn[nH]c4)cc3)c2=O)ccc1F [Example 50, 4-[(4-fluoro-3-methoxyphenyl)methyl]-1-[4-(1H-pyrazol-4-yl)phenyl]-4,5-dihydro-1H-1,2,4-triazol-5-one]
5 to 50	COc1cccc(Cn2cnn(-c3ccc(-c4cn[nH]c4)cc3)c2=O)c1F [Example 51, 1-(4-(1H-pyrazol-4-yl)phenyl)-4-(2-fluoro-3-methoxybenzyl)-1H-1,2,4-triazol-5(4H)-one]
250 to 2000	COc1ccc(F)cc1Cn1cnn(-c2ccc(-c3cn[nH]c3)cc2)c1=O [Example 52, 1-(4-(1H-pyrazol-4-yl)phenyl)-4-(5-fluoro-2-methoxybenzyl)-1H-1,2,4-triazol-5(4H)-one]
250 to 2000	COc1ccc(Cn2cnn(-c3ccc(-c4cn[nH]c4)cc3)c2=O)cc1F [Example 53, 1-(4-(1H-pyrazol-4-yl)phenyl)-4-(3-fluoro-4-methoxybenzyl)-1H-1,2,4-triazol-5(4H)-one]
50 to 250	CCc1cc(-n2ncn(Cc3ccccc3)c2=O)ccc1-c1cn[nH]c1 [Example 54, 4-benzyl-1-(3-ethyl-4-(1H-pyrazol-4-yl)phenyl)-1H-1,2,4-triazol-5(4H)-one]
5 to 50	CCc1cc(-n2ncn(Cc3cccc(F)c3)c2=O)ccc1-c1cn[nH]c1 [Example 55, 1-(3-ethyl-4-(1H-pyrazol-4-yl)phenyl)-4-(3-fluorobenzyl)-1H-1,2,4-triazol-5(4H)-one]
250 to 2000	CCc1cc(-n2ncn(Cc3c(F)cccc3F)c2=O)ccc1-c1cn[nH]c1 [Example 57, 4-(2,6-difluorobenzyl)-1-(3-ethyl-4-(1H-pyrazol-4-yl)phenyl)-1H-1,2,4-triazol-5(4H)-one]
5 to 50	CCc1cc(-n2ncn(C(C)c3ccccc3)c2=O)ccc1-c1cn[nH]c1 (centres unmarked) [Example 58, 1-(3-ethyl-4-(1H-pyrazol-4-yl)phenyl)-4-(1-phenylethyl)-1H-1,2,4-triazol-5(4H)-one]
250 to 2000	Cc1nn(Cc2ccccc2)c(=O)n1-c1ccc(-c2cn[nH]c2)cc1 [Example 59, 4-(4-(1H-pyrazol-4-yl)phenyl)-1-benzyl-3-methyl-1H-1,2,4-triazol-5(4H)-one]
250 to 2000	COc1cc(-n2c(C)nn(Cc3ccccc3)c2=O)ccc1-c1cn[nH]c1 [Example 60, 1-benzyl-4-(3-methoxy-4-(1H-pyrazol-4-yl)phenyl)-3-methyl-1H-1,2,4-triazol-5(4H)-one]
50 to 250	COc1cccc(Cn2nc(C)n(-c3ccc(-c4cn[nH]c4)c(OC)c3)c2=O)c1 [Example 61, 4-(3-methoxy-4-(1H-pyrazol-4-yl)phenyl)-1-(3-methoxybenzyl)-3-methyl-1H-1,2,4-triazol-5(4H)-one]
250 to 2000	COc1cc(-n2c(C)nn(C(C)c3ccccc3)c2=O)ccc1-c1cn[nH]c1 (centres unmarked) [Example 62, 4-(3-methoxy-4-(1H-pyrazol-4-yl)phenyl)-3-methyl-1-(1-phenylethyl)-1H-1,2,4-triazol-5(4H)-one]
250 to 2000	COc1cc(-c2cn[nH]c2)ccc1-n1c(C)nn(Cc2ccccc2)c1=O [Example 63, 1-benzyl-4-(2-methoxy-4-(1H-pyrazol-4-yl)phenyl)-3-methyl-1H-1,2,4-triazol-5(4H)-one]
